Laboratory results as given in ChEMBL document CHEMBL1144021, “Molecular determinants of the anticonvulsant felbamate binding site in the N-methyl-D-aspartate receptor” (J Med Chem, 2008).
The source made the active and inactive calls. The calls are words filed in the database; no cut-off is given here.

Tests used:
[1] = test system: Glutamate receptor ionotropic, NMDA 2B (Homo sapiens), Q13224 [T233A]; experiment: Inhibition of NR2B receptor ATD T233A mutant expressed in Xenopus oocytes assessed as NMDA current at 0.5 mM relative to control; format: cell-based; conditions: Oocyte
[2] = Binding affinity to NR2B receptor M3c […] mutant
[3] = test system: Glutamate receptor ionotropic, NMDA 2B (Homo sapiens), Q13224 [L643A,T103A]; experiment: Binding affinity to NR2B receptor L643A/T103A mutant
[4] = test system: Glutamate receptor ionotropic, NMDA 2B (Homo sapiens), Q13224 [F550A]; experiment: Inhibition of NR2B receptor Pre-M1 F550A mutant expressed in Xenopus oocytes assessed as NMDA current at 0.5 mM relative to control; format: cell-based; conditions: Oocyte
[5] = test system: Glutamate receptor ionotropic, NMDA 2B (Homo sapiens), Q13224 [E552A]; experiment: Inhibition of NR2B receptor Pre-M1 E552A mutant expressed in Xenopus oocytes assessed as NMDA current at 0.5 mM relative to control; format: cell-based; conditions: Oocyte
[6] = test system: Glutamate receptor ionotropic, NMDA 2B (Homo sapiens), Q13224 [D557A]; experiment: Inhibition of NR2B receptor Pre-M1 D557A mutant expressed in Xenopus oocytes assessed as NMDA current at 0.5 mM relative to control; format: cell-based; conditions: Oocyte
[7] = test system: Glutamate receptor ionotropic, NMDA 2B (Homo sapiens), Q13224 [N615A]; experiment: Inhibition of NR2B receptor M2 N615A mutant expressed in Xenopus oocytes assessed as NMDA current at 0.5 mM relative to control; format: cell-based; conditions: Oocyte
[8] = test system: Glutamate receptor ionotropic, NMDA 2B (Homo sapiens), Q13224 [N616A]; experiment: Inhibition of NR2B receptor M2 N616A mutant expressed in Xenopus oocytes assessed as NMDA current at 0.5 mM relative to control; format: cell-based; conditions: Oocyte
[9] = test system: Glutamate receptor ionotropic, NMDA 2B (Homo sapiens), Q13224 [A644C]; experiment: Inhibition of NR2B receptor M3c A644C mutant expressed in Xenopus oocytes assessed as NMDA current at 0.5 mM relative to control; format: cell-based; conditions: Oocyte
[10] = test system: Glutamate receptor ionotropic, NMDA 2B (Homo sapiens), Q13224 [T647A]; experiment: Inhibition of NR2B receptor M3c T647A mutant expressed in Xenopus oocytes assessed as NMDA current at 0.5 mM relative to control; format: cell-based; conditions: Oocyte
[11] = test system: Glutamate receptor ionotropic, NMDA 2B (Homo sapiens), Q13224 [N649A]; experiment: Inhibition of NR2B receptor M3c N649A mutant expressed in Xenopus oocytes assessed as NMDA current at 0.5 mM relative to control; format: cell-based; conditions: Oocyte
[12] = test system: Glutamate receptor ionotropic, NMDA 2B (Homo sapiens), Q13224 [L650A]; experiment: Inhibition of NR2B receptor M3c L650A mutant expressed in Xenopus oocytes assessed as NMDA current at 0.5 mM relative to control; format: cell-based; conditions: Oocyte
[13] = test system: Glutamate receptor ionotropic, NMDA 2B (Homo sapiens), Q13224 [A651T]; experiment: Inhibition of NR2B receptor M3c A651T mutant expressed in Xenopus oocytes assessed as NMDA current at 0.5 mM relative to control; format: cell-based; conditions: Oocyte
[14] = test system: Glutamate receptor ionotropic, NMDA 2B (Homo sapiens), Q13224 [M654A]; experiment: Inhibition of NR2B receptor post-M3 M654A mutant expressed in Xenopus oocytes assessed as NMDA current at 0.5 mM relative to control; format: cell-based; conditions: Oocyte
[15] = test system: Glutamate receptor ionotropic, NMDA 2B (Homo sapiens), Q13224 [E657A]; experiment: Inhibition of NR2B receptor post-M3 E657A mutant expressed in Xenopus oocytes assessed as NMDA current at 0.5 mM relative to control; format: cell-based; conditions: Oocyte
[16] = test system: Glutamate receptor ionotropic, NMDA 2B (Homo sapiens), Q13224 [D101A]; experiment: Binding affinity to NR2B receptor ATD D101A mutant
[17] = test system: Glutamate receptor ionotropic, NMDA 2B (Homo sapiens), Q13224 [E236A]; experiment: Binding affinity to NR2B receptor ATD E236A mutant
[18] = test system: Glutamate receptor ionotropic, NMDA 2B (Homo sapiens), Q13224 [I641A]; experiment: Binding affinity to NR2B receptor M3c I641A mutant
[19] = Ratio of Kapp for wild type NR2B receptor to Kapp for NR2B receptor L643A/T647A mutant
[20] = Ratio of Kapp for wild type NR2B receptor to Kapp for NR2B receptor L643A/T103A mutant
[21] = Ratio of Kapp for wild type NR2B receptor to Kapp for NR2B receptor T647A/K234A mutant
[22] = Ratio of Kapp for wild type NR2B receptor to Kapp for NR2B receptor T647A/S645A mutant
[23] = Ratio of Kapp for wild type NR2B receptor to Kapp for NR2B receptor S645A/T103A mutant
[24] = test system: Glutamate receptor ionotropic, NMDA 2B (Homo sapiens), Q13224 [L643A,S645A]; experiment: Binding affinity to NR2B receptor L643A/S645A mutant
[25] = Binding affinity to NR2B receptor […]/T103A mutant
[26] = test system: Glutamate receptor ionotropic, NMDA 2B (Homo sapiens), Q13224 [S645A,T103A]; experiment: Binding affinity to NR2B receptor S645A/T103A mutant
[27] = test system: Glutamate receptor ionotropic, NMDA 2B (Homo sapiens), Q13224 [S645A,K234A]; experiment: Binding affinity to NR2B receptor S645A/K234A mutant
[28] = test system: Glutamate receptor ionotropic, NMDA 2B (Homo sapiens), Q13224 [S645A,I641A]; experiment: Binding affinity to NR2B receptor S645A/I641A mutant
[29] = Ratio of Kapp for wild type NR2B receptor to Kapp for NR2B receptor ATD D101A mutant
[30] = Ratio of Kapp for wild type NR2B receptor to Kapp for NR2B receptor ATD T103A mutant
[31] = Ratio of Kapp for wild type NR2B receptor to Kapp for NR2B receptor ATD T233A mutant
[32] = Ratio of Kapp for wild type NR2B receptor to Kapp for NR2B receptor ATD K234A mutant
[33] = Ratio of Kapp for wild type NR2B receptor to Kapp for NR2B receptor M3c L643A mutant
[34] = Ratio of Kapp for wild type NR2B receptor to Kapp for NR2B receptor M3c T647A mutant
[35] = Ratio of Kapp for wild type NR2B receptor to Kapp for NR2B receptor M3c A652T mutant
[36] = Ratio of Kapp for wild type NR2B receptor to Kapp for NR2B receptor S645A/K234A mutant
[37] = Ratio of Kapp for wild type NR2B receptor to Kapp for NR2B receptor S645A/I641A mutant
[38] = Ratio of Kapp for wild type NR2B receptor to Kapp for NR2B receptor T103A/K234A mutant

Glutamate receptor ionotropic, NMDA 2B (Homo sapiens), Q13224 [A644C], sequence (Q13224 whole entry A644C): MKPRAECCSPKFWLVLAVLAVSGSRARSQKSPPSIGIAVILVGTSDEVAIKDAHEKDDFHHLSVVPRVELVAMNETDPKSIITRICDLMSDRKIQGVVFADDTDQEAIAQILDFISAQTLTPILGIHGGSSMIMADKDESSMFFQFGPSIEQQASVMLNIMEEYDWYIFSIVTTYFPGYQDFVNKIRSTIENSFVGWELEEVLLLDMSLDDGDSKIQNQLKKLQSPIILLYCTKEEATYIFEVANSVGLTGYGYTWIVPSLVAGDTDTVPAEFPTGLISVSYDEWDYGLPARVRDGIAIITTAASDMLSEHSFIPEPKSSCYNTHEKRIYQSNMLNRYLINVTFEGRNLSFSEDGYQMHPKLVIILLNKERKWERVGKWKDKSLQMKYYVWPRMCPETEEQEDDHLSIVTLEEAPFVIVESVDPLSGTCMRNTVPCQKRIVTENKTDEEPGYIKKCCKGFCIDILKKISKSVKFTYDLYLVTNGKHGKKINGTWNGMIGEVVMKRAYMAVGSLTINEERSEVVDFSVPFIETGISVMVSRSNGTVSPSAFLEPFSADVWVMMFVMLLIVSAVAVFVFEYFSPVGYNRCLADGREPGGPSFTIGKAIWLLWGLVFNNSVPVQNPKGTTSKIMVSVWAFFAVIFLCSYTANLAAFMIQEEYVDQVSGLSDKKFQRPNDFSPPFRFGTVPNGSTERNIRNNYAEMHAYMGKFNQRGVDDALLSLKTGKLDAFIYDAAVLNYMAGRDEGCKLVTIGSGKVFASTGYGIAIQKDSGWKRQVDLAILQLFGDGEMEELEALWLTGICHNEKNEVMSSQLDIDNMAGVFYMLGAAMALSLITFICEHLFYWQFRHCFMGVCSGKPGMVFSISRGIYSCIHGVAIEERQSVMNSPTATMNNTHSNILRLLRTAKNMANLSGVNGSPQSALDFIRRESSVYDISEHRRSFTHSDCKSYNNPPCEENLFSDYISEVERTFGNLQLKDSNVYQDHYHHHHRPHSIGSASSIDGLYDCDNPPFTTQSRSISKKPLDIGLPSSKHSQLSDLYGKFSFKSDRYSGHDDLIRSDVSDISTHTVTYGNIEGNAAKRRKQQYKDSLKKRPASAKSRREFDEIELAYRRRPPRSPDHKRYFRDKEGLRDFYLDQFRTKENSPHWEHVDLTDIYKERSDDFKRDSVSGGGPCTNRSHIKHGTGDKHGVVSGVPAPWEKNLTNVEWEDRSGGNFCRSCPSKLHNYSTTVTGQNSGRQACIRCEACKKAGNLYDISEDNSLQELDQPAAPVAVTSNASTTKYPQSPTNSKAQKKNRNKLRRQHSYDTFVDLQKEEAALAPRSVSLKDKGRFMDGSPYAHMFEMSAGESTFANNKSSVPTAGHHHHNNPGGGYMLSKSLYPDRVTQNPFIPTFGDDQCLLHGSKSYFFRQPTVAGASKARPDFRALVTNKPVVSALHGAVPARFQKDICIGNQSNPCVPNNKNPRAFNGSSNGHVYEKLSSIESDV
Glutamate receptor ionotropic, NMDA 2B (Homo sapiens), Q13224 [D557A], sequence (Q13224 whole entry D557A): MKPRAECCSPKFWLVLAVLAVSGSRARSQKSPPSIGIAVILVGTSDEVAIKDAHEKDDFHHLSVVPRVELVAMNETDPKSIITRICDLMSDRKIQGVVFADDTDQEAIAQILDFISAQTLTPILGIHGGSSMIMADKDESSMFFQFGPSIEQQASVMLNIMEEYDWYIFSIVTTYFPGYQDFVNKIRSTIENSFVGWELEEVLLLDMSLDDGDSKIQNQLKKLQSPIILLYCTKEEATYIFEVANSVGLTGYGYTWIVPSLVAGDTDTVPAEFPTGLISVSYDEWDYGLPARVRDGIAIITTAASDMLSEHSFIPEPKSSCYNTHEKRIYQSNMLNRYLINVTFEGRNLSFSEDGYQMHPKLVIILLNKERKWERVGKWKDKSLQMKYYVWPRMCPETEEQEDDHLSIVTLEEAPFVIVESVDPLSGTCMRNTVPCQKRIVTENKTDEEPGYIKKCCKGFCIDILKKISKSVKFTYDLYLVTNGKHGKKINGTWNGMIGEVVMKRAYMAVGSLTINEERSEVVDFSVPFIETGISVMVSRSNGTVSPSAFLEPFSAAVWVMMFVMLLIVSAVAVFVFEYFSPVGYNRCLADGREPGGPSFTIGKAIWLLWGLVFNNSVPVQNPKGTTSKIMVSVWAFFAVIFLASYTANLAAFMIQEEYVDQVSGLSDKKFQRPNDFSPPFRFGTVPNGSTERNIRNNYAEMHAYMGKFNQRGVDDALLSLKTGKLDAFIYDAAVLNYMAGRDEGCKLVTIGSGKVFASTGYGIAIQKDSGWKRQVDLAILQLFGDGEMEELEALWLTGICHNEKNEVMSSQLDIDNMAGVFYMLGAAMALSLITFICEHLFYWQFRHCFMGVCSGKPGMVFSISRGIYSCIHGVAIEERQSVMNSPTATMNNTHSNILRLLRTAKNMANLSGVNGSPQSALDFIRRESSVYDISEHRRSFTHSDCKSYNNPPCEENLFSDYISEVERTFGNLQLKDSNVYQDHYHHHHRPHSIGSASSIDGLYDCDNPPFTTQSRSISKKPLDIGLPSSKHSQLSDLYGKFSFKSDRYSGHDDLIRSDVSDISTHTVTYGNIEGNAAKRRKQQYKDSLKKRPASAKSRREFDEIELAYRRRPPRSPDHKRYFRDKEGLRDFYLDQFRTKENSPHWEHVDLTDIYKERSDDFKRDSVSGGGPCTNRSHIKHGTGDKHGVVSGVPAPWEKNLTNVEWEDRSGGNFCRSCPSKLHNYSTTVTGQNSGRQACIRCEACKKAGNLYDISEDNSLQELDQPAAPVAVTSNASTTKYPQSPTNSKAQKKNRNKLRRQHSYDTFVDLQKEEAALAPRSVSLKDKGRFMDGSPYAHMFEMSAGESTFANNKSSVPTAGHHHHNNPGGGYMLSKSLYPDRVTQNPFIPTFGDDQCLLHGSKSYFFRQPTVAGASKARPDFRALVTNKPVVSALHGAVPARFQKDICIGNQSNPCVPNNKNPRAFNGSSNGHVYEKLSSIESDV
Glutamate receptor ionotropic, NMDA 2B (Homo sapiens), Q13224 [E236A], sequence (Q13224 whole entry E236A): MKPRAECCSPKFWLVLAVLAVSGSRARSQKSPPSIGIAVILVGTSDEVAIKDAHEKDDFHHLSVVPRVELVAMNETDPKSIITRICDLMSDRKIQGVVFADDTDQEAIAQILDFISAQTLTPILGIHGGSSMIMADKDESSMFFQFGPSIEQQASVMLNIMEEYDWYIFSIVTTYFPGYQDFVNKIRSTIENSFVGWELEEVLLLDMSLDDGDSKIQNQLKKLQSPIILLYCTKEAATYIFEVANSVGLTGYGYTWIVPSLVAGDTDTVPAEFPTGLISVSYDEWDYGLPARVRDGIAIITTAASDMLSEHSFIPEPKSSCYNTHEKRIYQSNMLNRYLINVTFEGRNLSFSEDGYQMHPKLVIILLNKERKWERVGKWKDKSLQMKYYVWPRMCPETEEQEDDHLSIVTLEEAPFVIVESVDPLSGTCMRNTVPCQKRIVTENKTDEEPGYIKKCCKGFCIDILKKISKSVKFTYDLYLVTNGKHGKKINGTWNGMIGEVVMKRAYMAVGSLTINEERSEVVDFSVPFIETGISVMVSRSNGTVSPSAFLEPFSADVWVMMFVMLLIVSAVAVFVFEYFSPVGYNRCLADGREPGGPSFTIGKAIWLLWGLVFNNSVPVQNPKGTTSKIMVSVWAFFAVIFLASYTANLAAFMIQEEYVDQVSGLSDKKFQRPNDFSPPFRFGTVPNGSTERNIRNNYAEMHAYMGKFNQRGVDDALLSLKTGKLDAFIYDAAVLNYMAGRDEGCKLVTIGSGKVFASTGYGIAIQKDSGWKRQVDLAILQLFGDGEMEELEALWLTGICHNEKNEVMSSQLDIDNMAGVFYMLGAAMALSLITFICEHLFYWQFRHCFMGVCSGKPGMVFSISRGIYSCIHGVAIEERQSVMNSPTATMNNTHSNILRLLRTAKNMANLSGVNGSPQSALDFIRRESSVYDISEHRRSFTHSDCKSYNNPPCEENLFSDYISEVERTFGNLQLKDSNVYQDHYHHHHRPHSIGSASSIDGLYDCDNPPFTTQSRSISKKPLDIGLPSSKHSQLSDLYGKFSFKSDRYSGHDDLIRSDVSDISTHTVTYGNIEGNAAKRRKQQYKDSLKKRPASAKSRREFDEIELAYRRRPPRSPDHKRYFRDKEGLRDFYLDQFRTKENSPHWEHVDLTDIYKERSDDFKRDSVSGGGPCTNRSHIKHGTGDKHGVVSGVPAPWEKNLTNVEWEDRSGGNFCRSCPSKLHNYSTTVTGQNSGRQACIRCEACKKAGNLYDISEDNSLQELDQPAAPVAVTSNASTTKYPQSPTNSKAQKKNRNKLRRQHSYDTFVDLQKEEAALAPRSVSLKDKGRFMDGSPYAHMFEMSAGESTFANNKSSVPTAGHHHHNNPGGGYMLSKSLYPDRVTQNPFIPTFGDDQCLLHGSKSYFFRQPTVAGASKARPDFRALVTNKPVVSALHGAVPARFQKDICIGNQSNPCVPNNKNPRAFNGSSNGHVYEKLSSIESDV

Q: For `NC(=O)OCC(COC(N)=O)c1ccccc1`, which inhibition [1] is on record?
A: Its inhibition is 84%.

Q: And the Kapp [2]?
A: The Kapp was 5.64 mM.

Q: What about the Kapp [3] of the same compound?
A: The Kapp was 5.07 mM.

Q: What about the inhibition [4] of the same compound?
A: Its inhibition is 62%.

Q: What about the inhibition [5] of the same compound?
A: The inhibition was 77%.

Q: What about the inhibition [6] of the same compound?
A: Its inhibition is 75%.

Q: What about the inhibition [7] of the same compound?
A: The inhibition was 66%.

Q: And the inhibition [8]?
A: The inhibition was 72%.

Q: And the inhibition [9]?
A: The inhibition was 73%.

Q: What about the inhibition [10] of the same compound?
A: Its inhibition is 89%.

Q: And the Activity [11]?
A: The Activity was “inactive”.

Q: What about the inhibition [12] of the same compound?
A: Its inhibition is 76%.

Q: What about the inhibition [13] of the same compound?
A: The inhibition was 72%.

Q: And the inhibition [14]?
A: The inhibition was 71%.

Q: And the inhibition [15]?
A: Its inhibition is 61%.

Q: What about the Kapp [16] of the same compound?
A: Its Kapp is 2.76 mM.

Q: What about the Kapp [17] of the same compound?
A: Its Kapp is 2.18 mM.

Q: What about the Kapp [18] of the same compound?
A: The Kapp was 2.45 mM.

Q: What about the Ratio Ki(app) [19] of the same compound?
A: The Ratio Ki(app) was 40.

Q: What about the Ratio Ki(app) [20] of the same compound?
A: The Ratio Ki(app) was 5.8.

Q: What about the Ratio Ki(app) [21] of the same compound?
A: The Ratio Ki(app) was 8.

Q: What about the Ratio Ki(app) [22] of the same compound?
A: Its Ratio Ki(app) is 8.1.

Q: What about the Ratio Ki(app) [23] of the same compound?
A: The Ratio Ki(app) was 7.2.

Q: And the Kapp [24]?
A: Its Kapp is 6.68 mM.

Q: What about the Kapp [25] of the same compound?
A: Its Kapp is 6.73 mM.

Q: What about the Kapp [26] of the same compound?
A: Its Kapp is 6.28 mM.

Q: And the Kapp [27]?
A: Its Kapp is 7.1 mM.

Q: What about the Kapp [28] of the same compound?
A: Its Kapp is 4.43 mM.

Q: What about the Ratio Ki(app) [29] of the same compound?
A: The Ratio Ki(app) was 3.2.

Q: What about the Ratio Ki(app) [30] of the same compound?
A: The Ratio Ki(app) was 4.8.

Q: What about the Ratio Ki(app) [31] of the same compound?
A: Its Ratio Ki(app) is 2.9.

Q: And the Ratio Ki(app) [32]?
A: Its Ratio Ki(app) is 4.9.

Q: What about the Ratio Ki(app) [33] of the same compound?
A: Its Ratio Ki(app) is 6.5.

Q: What about the Ratio Ki(app) [34] of the same compound?
A: The Ratio Ki(app) was 7.5.

Q: And the Ratio Ki(app) [35]?
A: The Ratio Ki(app) was 3.3.

Q: What about the Ratio Ki(app) [36] of the same compound?
A: Its Ratio Ki(app) is 8.2.

Q: And the Ratio Ki(app) [37]?
A: The Ratio Ki(app) was 5.1.

Q: What about the Ratio Ki(app) [38] of the same compound?
A: Its Ratio Ki(app) is 4.8.
